Reference: ChEMBL document CHEMBL1157133, “Design, synthesis, and interaction study of quinazoline-2(1H)-thione derivatives as novel potential Bcl-xL inhibitors” (J Med Chem, 2010)
The source made the active and inactive calls. The calls are words filed in the database; no cut-off is given here.

Columns and labels:
Bcl-2-like protein 1 [1] = molecular target: T1, Bcl-2-like protein 1 (Homo sapiens, UniProt Q07817); test: Inhibition of human Bcl-XL
Bcl-2-like protein 1 [2] = molecular target: T1, Bcl-2-like protein 1; test: Displacement of FITC-labeled BH3 peptide from human Bcl-XL after 1 hr by fluorescence polarization assay
[3] = molecular target: Induced myeloid leukemia cell differentiation protein Mcl-1 homolog (Mus musculus, UniProt P97287); test: Displacement of FITC-labeled BH3 peptide from GST-tagged mouse Mcl1 after 1 hr by fluorescence polarization assay
[4] = molecular target: Apoptosis regulator Bcl-2 (Homo sapiens, UniProt P10415); test: Displacement of FITC labeled BH3 peptide from His-tagged human BCL2 after 1 hr by fluorescence polarization assay
Bcl-2-like protein 1 [5] = molecular target: T1, Bcl-2-like protein 1; test: Binding affinity to human Bcl-XL by surface plasma resonance based biosensor system
Bcl-2-like protein 1 [6] = molecular target: Bcl-2-like protein 1 (Homo sapiens, UniProt Q07817, E96A); test: Binding affinity to human Bcl-XL E96A mutant by surface plasma resonance based biosensor system
Bcl-2-like protein 1 [7] = molecular target: Bcl-2-like protein 1 (Homo sapiens, UniProt Q07817, Y101A); test: Binding affinity to human Bcl-XL Y101A mutant by surface plasma resonance based biosensor system
Bcl-2-like protein 1 [8] = molecular target: Bcl-2-like protein 1 (Homo sapiens, UniProt Q07817, Y195A); test: Binding affinity to human Bcl-XL Y195A mutant by surface plasma resonance based biosensor system
OVCAR-3 = test: Cytotoxicity against human OVCAR-3 cells after 48 hrs by MTT assay; conditions: OVCAR-3, 48 h
[9] = Cytotoxicity against human Bel7404 cells after 48 hrs by MTT assay; conditions: BEL-7404, 48 h
PC-3 = test: Cytotoxicity against human PC3 cells after 48 hrs by MTT assay; type: functional, cell-based
K562 [10] = test: Induction of apoptosis in human K562 cells assessed as chromatin condensation; type: functional, cell-based
K562 [11] = test: Induction of apoptosis in human K562 cells assessed activation of caspase3 at 25 uM after 48 hrs by immunoblotting; type: functional, cell-based
K562 [12] = test: Induction of apoptosis in human K562 cells assessed activation of caspase9 at 25 uM after 48 hrs by immunoblotting; type: functional, cell-based
K562 [13] = test: Induction of apoptosis in human K562 cells assessed as increase of reactive oxygen species level at 25 uM after 48 hrs using DCFH-DA fluorescent dye relative to control; type: functional
A2780 = test: cells; conditions: Homo sapiens, A2780, 48 h
Description: Cytotoxicity against human A2780 cells after 48 hrs by MTT assay

HepG2 = test: cells; conditions: Homo sapiens, HepG2, 48 h
Description: Cytotoxicity against human HepG2 cells after 48 hrs by MTT assay

K562 [14] = test: cells; conditions: Homo sapiens, K562, 48 h
Description: Cytotoxicity against human K562 cells after 48 hrs by MTT assay

K562 [15] = test: Induction of apoptosis in human K562 cells assessed reduction of mitochondrial membrane potential after 24 hrs using JC1 fluorescent dye

T1 sequence (Q07817 whole entry): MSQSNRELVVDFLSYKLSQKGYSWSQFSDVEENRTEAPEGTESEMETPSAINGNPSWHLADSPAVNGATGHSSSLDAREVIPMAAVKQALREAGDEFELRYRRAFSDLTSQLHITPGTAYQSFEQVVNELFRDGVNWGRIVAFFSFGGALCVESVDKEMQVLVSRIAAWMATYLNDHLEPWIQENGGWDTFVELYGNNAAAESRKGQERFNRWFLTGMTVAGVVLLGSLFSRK
Chain of Induced myeloid leukemia cell differentiation protein Mcl-1 homolog (P97287 whole entry): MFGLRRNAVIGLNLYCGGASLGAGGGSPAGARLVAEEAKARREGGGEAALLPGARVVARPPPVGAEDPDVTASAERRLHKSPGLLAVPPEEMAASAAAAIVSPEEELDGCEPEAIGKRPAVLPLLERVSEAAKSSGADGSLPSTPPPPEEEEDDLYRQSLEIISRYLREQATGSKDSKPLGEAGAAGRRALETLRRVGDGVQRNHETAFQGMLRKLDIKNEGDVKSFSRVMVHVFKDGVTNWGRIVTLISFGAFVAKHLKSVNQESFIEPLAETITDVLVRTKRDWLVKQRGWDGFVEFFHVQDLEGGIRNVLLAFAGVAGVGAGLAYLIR
Chain of Bcl-2-like protein 1 (Homo sapiens, UniProt Q07817, Y101A) (Q07817 whole entry Y101A): as the sequence (Q07817 whole entry) above, with Y101A counted along it
Chain of Apoptosis regulator Bcl-2 (P10415 whole entry): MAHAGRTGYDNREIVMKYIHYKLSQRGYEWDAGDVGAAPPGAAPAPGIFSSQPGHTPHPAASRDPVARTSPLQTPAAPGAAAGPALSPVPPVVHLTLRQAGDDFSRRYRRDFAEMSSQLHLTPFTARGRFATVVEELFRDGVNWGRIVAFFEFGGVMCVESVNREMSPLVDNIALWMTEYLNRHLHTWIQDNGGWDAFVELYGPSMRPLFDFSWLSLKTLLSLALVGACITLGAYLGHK
Chain of Bcl-2-like protein 1 (Homo sapiens, UniProt Q07817, E96A) (Q07817 whole entry E96A): as the sequence (Q07817 whole entry) above, with E96A counted along it
Chain of Bcl-2-like protein 1 (Homo sapiens, UniProt Q07817, Y195A) (Q07817 whole entry Y195A): as the sequence (Q07817 whole entry) above, with Y195A counted along it

- IC50 (Bcl-2-like protein 1 [1]): 3.4 µM
- IC50 (Bcl-2-like protein 1 [2]): 3.4 µM
- IC50 [3]: 6.4 µM
- IC50 [4]: 3.1 µM
- Kd (Bcl-2-like protein 1 [5]): 9.5 µM
- Kd (Bcl-2-like protein 1 [6]): 34.8 µM
- Kd (Bcl-2-like protein 1 [7]): 6.94 µM
- Kd (Bcl-2-like protein 1 [8]): 904 µM
- EC50 (A2780): 4.57 µM
- EC50 (HepG2): 12.7 µM
- EC50 (K562 [14]): 50.9 µM
SMILES: COc1ccccc1C1C2=C(N=c3s/c(=C\c4cccc(OCC(=O)O)c4)c(=O)n31)c1ccccc1CC2 (stereo not given)
- EC50 (OVCAR-3): 1.54 µM
- EC50 [9]: 7.9 µM
- Activity (PC-3): Dose-dependent effect
- EC50 (PC-3; PC-3, 48 h): 37.6 µM
- Activity (K562 [10]): Active
- Activity (K562 [11]): Active
- Activity (K562 [12]): Active
- fold change (FC) (K562 [13]): 2.7
- Activity (K562 [15]): Dose-dependent effect
